Results taken from the kinase profiling compilation of Christmann-Franck et al. (2016).

Legend:
Experiment in all cases: radiometric filter-binding kinase assay
[1] = test system: AKT2 (human), P31751 [S474D]
FGFR1 (human) = FGFR1 (human) (UniProt P11362)
MAPK11 (human) = MAPK11 (human) (UniProt Q15759)
EPHA2 (human) = EPHA2 (human) (UniProt P29317)
PKN2 (human) = PKN2 (human) (UniProt Q16513)
TTK (human) = TTK (human) (UniProt P33981)
PIM2 (human) = PIM2 (human) (UniProt Q9P1W9)
DYRK3 (human) = DYRK3 (human) (UniProt O43781)
NEK6 (human) = NEK6 (human) (UniProt Q9HC98)
GSK3B (human) = GSK3B (human) (UniProt P49841)
MAPK10 (human) = MAPK10 (human) (UniProt P53779)
CSNK2A1 (human) = CSNK2A1 (human) (UniProt P68400)
ROCK2 (rat) = conditions: accession and sequence are those of the human protein
NEK2 (human) = NEK2 (human) (UniProt P51955)
PHKG1 (human) = PHKG1 (human) (UniProt Q16816)
MAP3K9 (human) = MAP3K9 (human) (UniProt P80192)
[2] = test system: PAK2 (human), Q13177 [T402E]
MAPK13 (human) = MAPK13 (human) (UniProt O15264)
SYK (human) = SYK (human) (UniProt P43405)
[3] = test system: RPS6KB1 (human), P23443 [T412E]
SRPK1 (human) = SRPK1 (human) (UniProt Q96SB4)
MKNK1 (human) = MKNK1 (human) (UniProt Q9BUB5)
LCK (mouse) = conditions: accession and sequence are those of the human protein
MAP2K1 (human) = MAP2K1 (human) (UniProt Q02750)
INSR (human) = INSR (human) (UniProt P06213); conditions: compound 1.0 µM
INSRR (human) = INSRR (human) (UniProt P14616)
MARK1 (human) = MARK1 (human) (UniProt Q9P0L2)
MAP2K6 (human) = MAP2K6 (human) (UniProt P52564)
MYLK (human) = MYLK (human) (UniProt Q15746)
TBK1 (human) = TBK1 (human) (UniProt Q9UHD2)
[4] = test system: AKT1 (human), P31749 [S473D]
[5] = target: STK11 CAB39 STRADA (human) (UniProt Q9Y376+Q7RTN6+Q15831)
MARK2 (human) = MARK2 (human) (UniProt Q7KZI7)
IRAK4 (human) = IRAK4 (human) (UniProt Q9NWZ3)
EPHB1 (human) = EPHB1 (human) (UniProt P54762)
PIM3 (human) = PIM3 (human) (UniProt Q86V86)

Chain of MARK2 (human) (Q7KZI7 whole entry, looked up): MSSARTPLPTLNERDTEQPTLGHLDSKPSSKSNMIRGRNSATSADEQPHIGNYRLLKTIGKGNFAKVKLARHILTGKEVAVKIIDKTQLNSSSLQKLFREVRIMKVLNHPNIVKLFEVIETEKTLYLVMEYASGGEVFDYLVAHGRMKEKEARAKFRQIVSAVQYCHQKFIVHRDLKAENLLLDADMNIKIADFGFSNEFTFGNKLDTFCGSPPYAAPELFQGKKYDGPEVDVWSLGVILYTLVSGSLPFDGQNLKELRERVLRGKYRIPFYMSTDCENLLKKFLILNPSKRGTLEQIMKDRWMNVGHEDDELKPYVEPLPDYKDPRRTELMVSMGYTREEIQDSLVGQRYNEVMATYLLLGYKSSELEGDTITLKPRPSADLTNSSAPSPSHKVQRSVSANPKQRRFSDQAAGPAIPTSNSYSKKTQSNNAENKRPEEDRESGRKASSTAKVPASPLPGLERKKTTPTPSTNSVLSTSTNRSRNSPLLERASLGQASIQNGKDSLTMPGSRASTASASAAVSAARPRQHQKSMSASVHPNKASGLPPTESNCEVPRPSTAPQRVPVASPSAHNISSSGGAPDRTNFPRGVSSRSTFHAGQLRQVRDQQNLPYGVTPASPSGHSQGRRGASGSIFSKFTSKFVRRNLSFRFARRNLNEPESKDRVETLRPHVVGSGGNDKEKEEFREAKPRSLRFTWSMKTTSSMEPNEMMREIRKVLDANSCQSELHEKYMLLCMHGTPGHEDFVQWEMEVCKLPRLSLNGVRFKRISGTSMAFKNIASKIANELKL
Chain of DYRK3 (human) (O43781 whole entry, looked up): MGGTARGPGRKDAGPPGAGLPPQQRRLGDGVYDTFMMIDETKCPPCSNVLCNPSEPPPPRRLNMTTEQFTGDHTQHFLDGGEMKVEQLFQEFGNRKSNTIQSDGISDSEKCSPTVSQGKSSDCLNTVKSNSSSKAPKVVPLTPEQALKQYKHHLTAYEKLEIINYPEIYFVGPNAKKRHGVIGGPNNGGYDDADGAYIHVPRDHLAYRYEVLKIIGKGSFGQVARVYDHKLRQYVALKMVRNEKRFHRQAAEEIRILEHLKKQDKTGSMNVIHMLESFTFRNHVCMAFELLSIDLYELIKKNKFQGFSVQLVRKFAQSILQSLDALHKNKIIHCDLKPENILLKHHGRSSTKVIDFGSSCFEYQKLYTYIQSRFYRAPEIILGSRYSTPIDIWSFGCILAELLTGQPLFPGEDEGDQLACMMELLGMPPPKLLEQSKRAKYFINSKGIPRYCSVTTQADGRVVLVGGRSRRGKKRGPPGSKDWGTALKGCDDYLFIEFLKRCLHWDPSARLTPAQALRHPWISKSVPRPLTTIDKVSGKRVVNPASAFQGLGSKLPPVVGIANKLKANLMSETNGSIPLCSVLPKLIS
Chain of MKNK1 (human) (Q9BUB5 whole entry, looked up): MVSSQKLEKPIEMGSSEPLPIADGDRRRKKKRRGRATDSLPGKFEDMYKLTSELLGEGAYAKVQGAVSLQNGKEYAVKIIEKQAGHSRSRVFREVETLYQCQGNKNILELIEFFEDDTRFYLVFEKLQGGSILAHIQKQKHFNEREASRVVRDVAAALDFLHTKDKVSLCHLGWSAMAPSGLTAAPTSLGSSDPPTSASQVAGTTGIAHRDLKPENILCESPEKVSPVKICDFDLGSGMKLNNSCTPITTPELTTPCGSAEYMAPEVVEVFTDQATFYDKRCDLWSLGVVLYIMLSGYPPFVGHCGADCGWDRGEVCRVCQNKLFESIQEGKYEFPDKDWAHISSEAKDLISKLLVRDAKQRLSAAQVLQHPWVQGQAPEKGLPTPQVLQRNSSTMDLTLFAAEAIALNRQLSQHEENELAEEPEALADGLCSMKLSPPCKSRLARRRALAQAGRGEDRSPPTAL
Chain of FGFR1 (human) (P11362 whole entry, looked up): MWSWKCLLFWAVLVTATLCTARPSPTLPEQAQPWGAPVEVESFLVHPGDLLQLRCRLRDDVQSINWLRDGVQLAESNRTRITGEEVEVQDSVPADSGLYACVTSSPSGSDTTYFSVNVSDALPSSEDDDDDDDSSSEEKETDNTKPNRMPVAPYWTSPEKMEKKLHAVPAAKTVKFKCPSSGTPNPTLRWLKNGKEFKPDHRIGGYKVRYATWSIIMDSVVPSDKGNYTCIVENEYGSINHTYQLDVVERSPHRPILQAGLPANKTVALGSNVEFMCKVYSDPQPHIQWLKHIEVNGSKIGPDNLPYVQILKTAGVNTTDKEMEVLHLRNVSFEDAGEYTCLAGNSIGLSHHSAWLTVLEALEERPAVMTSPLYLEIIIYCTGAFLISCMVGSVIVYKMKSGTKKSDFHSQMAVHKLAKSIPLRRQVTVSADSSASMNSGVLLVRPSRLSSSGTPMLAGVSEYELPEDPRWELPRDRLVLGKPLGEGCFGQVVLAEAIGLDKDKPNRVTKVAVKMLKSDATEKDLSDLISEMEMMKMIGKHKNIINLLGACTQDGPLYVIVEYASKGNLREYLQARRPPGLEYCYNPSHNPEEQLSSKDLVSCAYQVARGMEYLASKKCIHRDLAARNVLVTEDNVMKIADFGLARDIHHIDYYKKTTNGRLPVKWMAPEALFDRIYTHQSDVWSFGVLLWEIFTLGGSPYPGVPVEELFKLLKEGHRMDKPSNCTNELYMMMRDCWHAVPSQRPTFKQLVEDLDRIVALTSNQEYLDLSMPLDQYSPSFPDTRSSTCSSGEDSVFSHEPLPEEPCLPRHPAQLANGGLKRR
Chain of NEK2 (human) (P51955 whole entry, looked up): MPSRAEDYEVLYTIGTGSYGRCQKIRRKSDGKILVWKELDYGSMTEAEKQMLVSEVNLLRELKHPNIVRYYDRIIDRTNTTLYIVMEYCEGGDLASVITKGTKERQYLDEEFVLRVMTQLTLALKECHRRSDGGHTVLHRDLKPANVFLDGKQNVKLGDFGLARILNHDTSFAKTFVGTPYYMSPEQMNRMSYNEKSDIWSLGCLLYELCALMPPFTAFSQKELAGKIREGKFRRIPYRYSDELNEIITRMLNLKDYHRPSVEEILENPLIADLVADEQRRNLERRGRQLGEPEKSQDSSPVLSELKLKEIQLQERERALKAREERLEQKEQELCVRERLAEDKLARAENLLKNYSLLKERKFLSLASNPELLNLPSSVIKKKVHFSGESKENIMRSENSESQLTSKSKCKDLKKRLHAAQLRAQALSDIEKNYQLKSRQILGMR
Chain of STK11 CAB39 STRADA (human) (Q15831 whole entry, looked up): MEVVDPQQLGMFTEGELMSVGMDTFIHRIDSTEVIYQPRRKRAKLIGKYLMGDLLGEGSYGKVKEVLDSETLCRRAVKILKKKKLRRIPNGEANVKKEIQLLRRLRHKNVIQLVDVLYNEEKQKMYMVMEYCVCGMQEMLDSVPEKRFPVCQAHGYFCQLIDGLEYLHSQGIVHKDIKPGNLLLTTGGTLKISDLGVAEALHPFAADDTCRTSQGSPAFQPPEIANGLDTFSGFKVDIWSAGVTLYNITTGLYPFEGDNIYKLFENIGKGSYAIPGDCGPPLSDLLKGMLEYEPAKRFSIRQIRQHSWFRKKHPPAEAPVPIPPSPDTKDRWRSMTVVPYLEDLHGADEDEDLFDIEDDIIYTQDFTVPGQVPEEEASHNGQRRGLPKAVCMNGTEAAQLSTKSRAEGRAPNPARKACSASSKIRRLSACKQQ
Chain of STK11 CAB39 STRADA (human) (Q7RTN6 whole entry, looked up): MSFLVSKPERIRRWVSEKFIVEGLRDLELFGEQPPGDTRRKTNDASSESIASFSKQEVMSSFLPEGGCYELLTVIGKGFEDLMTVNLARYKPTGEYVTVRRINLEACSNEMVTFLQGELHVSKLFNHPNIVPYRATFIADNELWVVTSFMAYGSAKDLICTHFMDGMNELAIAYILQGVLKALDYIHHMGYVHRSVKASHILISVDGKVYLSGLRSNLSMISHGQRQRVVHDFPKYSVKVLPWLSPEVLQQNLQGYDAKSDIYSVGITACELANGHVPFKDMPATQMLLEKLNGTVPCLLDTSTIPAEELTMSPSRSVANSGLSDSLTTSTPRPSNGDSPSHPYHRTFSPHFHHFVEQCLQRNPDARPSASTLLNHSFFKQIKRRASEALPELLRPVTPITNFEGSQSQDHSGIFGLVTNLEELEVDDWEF
Chain of STK11 CAB39 STRADA (human) (Q9Y376 whole entry, looked up): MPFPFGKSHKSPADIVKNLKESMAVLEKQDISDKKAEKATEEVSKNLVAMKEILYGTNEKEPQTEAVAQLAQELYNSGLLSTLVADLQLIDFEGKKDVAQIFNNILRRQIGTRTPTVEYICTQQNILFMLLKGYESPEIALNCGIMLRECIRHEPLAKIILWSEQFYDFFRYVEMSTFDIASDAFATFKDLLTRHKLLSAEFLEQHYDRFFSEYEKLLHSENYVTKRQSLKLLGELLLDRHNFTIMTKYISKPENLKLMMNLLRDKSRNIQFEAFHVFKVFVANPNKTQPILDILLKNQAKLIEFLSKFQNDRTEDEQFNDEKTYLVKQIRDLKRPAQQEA
Chain of PIM2 (human) (Q9P1W9 whole entry, looked up): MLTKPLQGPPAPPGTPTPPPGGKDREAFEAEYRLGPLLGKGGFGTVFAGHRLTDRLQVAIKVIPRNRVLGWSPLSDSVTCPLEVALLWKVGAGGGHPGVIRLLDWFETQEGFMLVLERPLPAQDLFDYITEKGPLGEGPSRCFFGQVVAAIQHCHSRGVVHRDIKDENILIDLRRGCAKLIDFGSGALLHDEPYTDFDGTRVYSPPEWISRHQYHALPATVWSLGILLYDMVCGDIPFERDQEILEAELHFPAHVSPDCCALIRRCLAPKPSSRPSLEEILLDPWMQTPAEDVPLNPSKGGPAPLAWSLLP

For `CC1=C(CO)C(=O)O[C@@H]([C@@H](C)[C@H]2CC[C@H]3[C@@H]4C[C@H]5O[C@]56[C@@H](O)C=CC(=O)[C@]6(C)C4CC[C@]23C)C1` (stereo partly drawn), the residual activity ([1]; compound 0.1 µM) was 92%, the residual activity ([1]; compound 1.0 µM) was 72% and the residual activity ([1]; compound 10.0 µM) was 10%. It also gave a residual activity (FGFR1 (human); compound 0.1 µM) of 98%, a residual activity (FGFR1 (human); compound 1.0 µM) of 97% and a residual activity (FGFR1 (human); compound 10.0 µM) of 94%. For the same compound, the residual activity (MAPK11 (human); compound 0.1 µM) was 121%, the residual activity (MAPK11 (human); compound 10.0 µM) was 128% and the residual activity (EPHA2 (human); compound 0.1 µM) was 94%. The residual activity (EPHA2 (human); compound 1.0 µM) was 93%, the residual activity (EPHA2 (human); compound 10.0 µM) was 96% and the residual activity (PKN2 (human); compound 0.1 µM) was 103%. The residual activity (PKN2 (human); compound 1.0 µM) was 95%, the residual activity (PKN2 (human); compound 10.0 µM) was 104% and the residual activity (TTK (human); compound 0.1 µM) was 111%. The residual activity (TTK (human); compound 1.0 µM) was 112%, the residual activity (TTK (human); compound 10.0 µM) was 94% and the residual activity (PIM2 (human); compound 0.1 µM) was 96%. The residual activity (PIM2 (human); compound 1.0 µM) was 102%, the residual activity (PIM2 (human); compound 10.0 µM) was 97% and the residual activity (DYRK3 (human); compound 0.1 µM) was 103%. It also gave a residual activity (DYRK3 (human); compound 1.0 µM) of 101%, a residual activity (DYRK3 (human); compound 10.0 µM) of 78% and a residual activity (NEK6 (human); compound 1.0 µM) of 102%. The residual activity (NEK6 (human); compound 10.0 µM) was 111%, the residual activity (GSK3B (human); compound 0.1 µM) was 114% and the residual activity (GSK3B (human); compound 1.0 µM) was 124%. For the same compound, the residual activity (GSK3B (human); compound 10.0 µM) was 127%, the residual activity (MAPK10 (human); compound 0.1 µM) was 122% and the residual activity (MAPK10 (human); compound 1.0 µM) was 125%. The residual activity (MAPK10 (human); compound 10.0 µM) was 136%, the residual activity (CSNK2A1 (human); compound 0.1 µM) was 79% and the residual activity (CSNK2A1 (human); compound 1.0 µM) was 94%. For the same compound, the residual activity (CSNK2A1 (human); compound 10.0 µM) was 94%, the residual activity (ROCK2 (rat); compound 0.1 µM) was 103% and the residual activity (ROCK2 (rat); compound 1.0 µM) was 107%. For the same compound, the residual activity (ROCK2 (rat); compound 10.0 µM) was 112%, the residual activity (NEK2 (human); compound 0.1 µM) was 93% and the residual activity (NEK2 (human); compound 1.0 µM) was 94%. For the same compound, the residual activity (NEK2 (human); compound 10.0 µM) was 82%, the residual activity (PHKG1 (human); compound 0.1 µM) was 110% and the residual activity (PHKG1 (human); compound 1.0 µM) was 112%. It also gave a residual activity (PHKG1 (human); compound 10.0 µM) of 105%, a residual activity (MAP3K9 (human); compound 0.1 µM) of 91% and a residual activity (MAP3K9 (human); compound 1.0 µM) of 100%. The residual activity (MAP3K9 (human); compound 10.0 µM) was 86%, the residual activity ([2]; compound 0.1 µM) was 100% and the residual activity ([2]; compound 1.0 µM) was 96%. It also gave a residual activity ([2]; compound 10.0 µM) of 86%, a residual activity (MAPK13 (human); compound 0.1 µM) of 106% and a residual activity (MAPK13 (human); compound 1.0 µM) of 110%. For the same compound, the residual activity (MAPK13 (human); compound 10.0 µM) was 92%, the residual activity (SYK (human); compound 1.0 µM) was 115% and the residual activity (SYK (human); compound 10.0 µM) was 130%. It also gave a residual activity ([3]; compound 0.1 µM) of 99%, a residual activity ([3]; compound 1.0 µM) of 97% and a residual activity ([3]; compound 10.0 µM) of 69%. For the same compound, the residual activity (SRPK1 (human); compound 0.1 µM) was 89%, the residual activity (SRPK1 (human); compound 1.0 µM) was 86% and the residual activity (SRPK1 (human); compound 10.0 µM) was 63%. For the same compound, the residual activity (MKNK1 (human); compound 0.1 µM) was 98%, the residual activity (MKNK1 (human); compound 1.0 µM) was 100% and the residual activity (MKNK1 (human); compound 10.0 µM) was 108%. For the same compound, the residual activity (LCK (mouse); compound 1.0 µM) was 111%, the residual activity (LCK (mouse); compound 10.0 µM) was 129% and the residual activity (MAP2K1 (human); compound 0.1 µM) was 100%. It also gave a residual activity (MAP2K1 (human); compound 10.0 µM) of 111%, a residual activity (INSR (human)) of 117% and a residual activity (INSRR (human); compound 0.1 µM) of 99%. It also gave a residual activity (INSRR (human); compound 1.0 µM) of 97%, a residual activity (INSRR (human); compound 10.0 µM) of 77% and a residual activity (MARK1 (human); compound 0.1 µM) of 106%. The residual activity (MARK1 (human); compound 1.0 µM) was 115%, the residual activity (MARK1 (human); compound 10.0 µM) was 111% and the residual activity (MAP2K6 (human); compound 0.1 µM) was 95%. For the same compound, the residual activity (MAP2K6 (human); compound 10.0 µM) was 109%, the residual activity (MYLK (human); compound 0.1 µM) was 113% and the residual activity (MYLK (human); compound 1.0 µM) was 114%. For the same compound, the residual activity (MYLK (human); compound 10.0 µM) was 114%, the residual activity (TBK1 (human); compound 1.0 µM) was 107% and the residual activity (TBK1 (human); compound 10.0 µM) was 93%. For the same compound, the residual activity ([4]; compound 0.1 µM) was 118%, the residual activity ([4]; compound 1.0 µM) was 99% and the residual activity ([4]; compound 10.0 µM) was 105%. The residual activity ([5]; compound 0.1 µM) was 104%, the residual activity ([5]; compound 1.0 µM) was 111% and the residual activity ([5]; compound 10.0 µM) was 114%. It also gave a residual activity (MARK2 (human); compound 0.1 µM) of 109%, a residual activity (MARK2 (human); compound 1.0 µM) of 111% and a residual activity (MARK2 (human); compound 10.0 µM) of 118%. For the same compound, the residual activity (IRAK4 (human); compound 1.0 µM) was 101%, the residual activity (IRAK4 (human); compound 10.0 µM) was 79% and the residual activity (EPHB1 (human); compound 0.1 µM) was 105%. For the same compound, the residual activity (EPHB1 (human); compound 1.0 µM) was 101%, the residual activity (EPHB1 (human); compound 10.0 µM) was 107% and the residual activity (PIM3 (human); compound 0.1 µM) was 95%. It also gave a residual activity (PIM3 (human); compound 1.0 µM) of 110% and a residual activity (PIM3 (human); compound 10.0 µM) of 83%.
